Article PMC10537368, “Design, Synthesis, and Biological Evaluation of Novel 3-Cyanopyridone/Pyrazoline Hybrids as Potential Apoptotic Antiproliferative Agents Targeting EGFR/BRAF^V600E Inhibitory Pathways” (Molecules, 2023)
Where “and” joins values, the source holds several entries; their conditions need not be identical. Equal values may be shown once. Read-outs that look alike come from different tables or passages of the source.

Experiments:
[1] = test system: breast cancer (MCF-7) cell line; test: Antiproliferative MTT assay, MCF-7; format: cell-based; settings: Homo sapiens, MCF7; MCF-7, MTT; read-out: Antiproliferative Activity IC50 ± SEM, MCF-7
From the text: (§1) The median inhibitory concentration (IC50) and GI50 [58]

[2] = test system: pancreatic cancer (Panc-1) cell line; test: Antiproliferative MTT assay, Panc-1; format: cell-based; settings: Homo sapiens; Panc-1, MTT; read-out: Antiproliferative Activity IC50 ± SEM, Panc-1
From the text: as §1

[3] = test system: lung cancer (A-549) cell line; test: Antiproliferative MTT assay, A-549; format: cell-based; settings: Homo sapiens, A549; A-549, MTT; read-out: Antiproliferative Activity IC50 ± SEM, A-549
From the text: as §1

[4] = test system: colon cancer (HT-29) cell line; test: Antiproliferative MTT assay, HT-29; format: cell-based; settings: Homo sapiens; HT-29, MTT; read-out: Antiproliferative Activity IC50 ± SEM, HT-29
From the text: as §1

A-549 cancer = test system: A-549 cancer; design: method as in PMID 37240450; settings: read-out: IC50 against A-549 cancer; cited from earlier work
Panc-1 cancer = test system: Panc-1 cancer; design: method as in PMID 36526595; settings: read-out: IC50 against Panc-1 cancer; cited from earlier work
BRAF^V600E [5] = molecular target: T1, BRAF^V600E (Homo sapiens, UniProt P15056, V600E); settings: cited from earlier work
EGFR [6] = molecular target: T2, EGFR (Homo sapiens, UniProt P00533); settings: read-out: EGFR inhibition IC50; cited from earlier work
EGFR [7] = molecular target: T2, EGFR; test: EGFR inhibitory assay; settings: for fold more potent than the reference Erlotinib (EGFR IC50): IC50 ratio vs Erlotinib
BRAF^V600E [8] = molecular target: T1, BRAF^V600E; test: BRAF^V600E inhibitory assay; format: biochemical; settings: read-out: BRAF^V600E Inhibition IC50 ± SEM
[9] = test system: four human cancer cell lines (A-549, MCF-7, Panc-1, HT-29); test: Antiproliferative MTT assay, average over four cancer cell lines (GI50); format: cell-based; settings: for IC50: Homo sapiens, average IC50 against the four cancer cell lines
[10] = Cell viability MTT assay on MCF-10A normal cells; format: cell-based; settings: human, MCF-10A mammary gland epithelial normal cells, MCF-10A cells, four days of incubation
Procedure: The viability of new compounds 21–30 was examined using the human mammary gland epithelial (MCF-10A) cell line. The cell viability of compounds 21–30 was assessed using the MTT assay after four days of incubation on MCF-10A cells.
The human mammary gland epithelial (MCF-10A) normal cell line was utilized to investigate the viability of new derivatives 21–30 [56]. For more information, see Supplementary Materials Files.

[11] = test system: Caspase-8 in A-594 cancer cell line; test: Caspase-8 level assay; format: cell-based, human; settings: for Caspase-8 Fold Change: A-594, vs untreated control; for Caspase-8 Conc: A-594 cell line
[12] = test system: Bax in A-594 cancer cell line; test: Bax level assay; format: cell-based, human; settings: for Bax Fold Change: A-594, vs untreated control; for Bax Conc: A-594 cell line
[13] = test system: Bcl-2 in A-594 cancer cell line; test: Bcl-2 level assay; format: cell-based, human; settings: for Bcl-2 Fold Reduction: A-594, vs untreated control; for Bcl-2 Conc: A-594 cell line
From the text: […]. […]. Compared to the untreated control cell, compounds 28 and 30 elevated caspase-8 levels by 25- and 28-fold, respectively.
[…]. Compounds 21, 28, and 30 were investigated as caspase-3, caspase-8, Bax activators, and Bcl-2 down-regulators against the human epithelial cancer cell line (A-594). See Supplementary Materials Files.

[14] = test system: Caspase-3 in human epithelial cancer cell line (A-594); test: Caspase 3 activation assay; format: cell-based; settings: for Caspase-3 Fold Change: A-594, vs untreated control cells; for Caspase-3 Conc: A-594 cell line
From the text: Caspases are essential for the induction and maintenance of apoptosis. Caspase-3 is an important caspase that cleaves several cell proteins, causing apoptosis.
See Supplementary Materials Files.

T2 sequence (P00533 25-1210): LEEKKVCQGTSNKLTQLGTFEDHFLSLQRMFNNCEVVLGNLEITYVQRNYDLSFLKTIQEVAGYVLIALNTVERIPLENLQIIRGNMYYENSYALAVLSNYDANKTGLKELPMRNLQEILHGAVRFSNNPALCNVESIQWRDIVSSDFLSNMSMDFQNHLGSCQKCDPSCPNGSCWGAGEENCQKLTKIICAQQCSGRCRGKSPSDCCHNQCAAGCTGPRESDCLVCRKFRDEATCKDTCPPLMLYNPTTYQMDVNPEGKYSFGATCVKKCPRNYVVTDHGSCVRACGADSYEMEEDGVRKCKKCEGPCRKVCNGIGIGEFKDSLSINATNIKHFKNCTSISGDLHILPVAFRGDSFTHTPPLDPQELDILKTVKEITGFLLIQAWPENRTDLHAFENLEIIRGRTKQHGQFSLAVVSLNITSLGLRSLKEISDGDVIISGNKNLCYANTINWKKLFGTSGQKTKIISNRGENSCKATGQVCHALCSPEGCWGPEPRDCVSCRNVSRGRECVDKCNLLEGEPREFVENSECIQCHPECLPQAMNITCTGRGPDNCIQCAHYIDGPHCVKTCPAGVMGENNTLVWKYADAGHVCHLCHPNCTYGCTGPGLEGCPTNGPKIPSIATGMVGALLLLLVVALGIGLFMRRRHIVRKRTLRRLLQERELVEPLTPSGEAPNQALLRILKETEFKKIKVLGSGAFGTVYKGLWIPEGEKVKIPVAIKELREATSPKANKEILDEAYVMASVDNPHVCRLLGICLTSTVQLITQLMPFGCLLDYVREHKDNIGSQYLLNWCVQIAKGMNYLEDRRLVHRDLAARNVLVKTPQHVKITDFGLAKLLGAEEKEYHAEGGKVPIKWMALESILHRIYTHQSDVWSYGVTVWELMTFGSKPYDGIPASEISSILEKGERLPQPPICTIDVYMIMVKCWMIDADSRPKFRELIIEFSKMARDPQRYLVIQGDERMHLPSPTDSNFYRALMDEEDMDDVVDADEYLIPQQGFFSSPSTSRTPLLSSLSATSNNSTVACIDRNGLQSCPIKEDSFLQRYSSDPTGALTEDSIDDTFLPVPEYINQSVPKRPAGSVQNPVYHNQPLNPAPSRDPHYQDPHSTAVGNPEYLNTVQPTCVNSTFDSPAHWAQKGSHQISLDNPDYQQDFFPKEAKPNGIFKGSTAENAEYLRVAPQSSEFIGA
T1 sequence (P15056 whole entry V600E): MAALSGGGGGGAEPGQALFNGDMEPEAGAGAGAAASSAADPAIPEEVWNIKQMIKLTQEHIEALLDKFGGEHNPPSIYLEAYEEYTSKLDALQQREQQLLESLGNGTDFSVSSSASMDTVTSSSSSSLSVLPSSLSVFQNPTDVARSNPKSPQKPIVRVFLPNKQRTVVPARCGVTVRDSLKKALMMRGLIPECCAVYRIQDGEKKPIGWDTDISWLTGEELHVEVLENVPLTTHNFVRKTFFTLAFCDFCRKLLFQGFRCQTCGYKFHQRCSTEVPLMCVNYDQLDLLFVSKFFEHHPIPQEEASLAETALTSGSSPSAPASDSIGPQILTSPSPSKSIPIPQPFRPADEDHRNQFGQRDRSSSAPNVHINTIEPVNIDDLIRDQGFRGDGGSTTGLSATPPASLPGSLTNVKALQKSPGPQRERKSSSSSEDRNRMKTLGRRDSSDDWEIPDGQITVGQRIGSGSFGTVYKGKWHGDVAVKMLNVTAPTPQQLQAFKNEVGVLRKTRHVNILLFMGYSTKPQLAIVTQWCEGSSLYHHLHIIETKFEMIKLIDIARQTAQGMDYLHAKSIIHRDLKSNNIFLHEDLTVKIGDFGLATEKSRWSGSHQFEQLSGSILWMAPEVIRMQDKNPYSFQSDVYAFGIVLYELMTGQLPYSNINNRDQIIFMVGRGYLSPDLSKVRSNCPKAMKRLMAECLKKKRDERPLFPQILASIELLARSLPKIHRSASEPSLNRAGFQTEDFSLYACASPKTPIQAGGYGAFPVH

| IC50 [1] [nM] | IC50 [2] [nM] | IC50 [3] [nM] | IC50 [4] [nM] | IC50 (EGFR [7]) [nM] | IC50 (BRAF^V600E [8]) | IC50 [9] [nM] | Structure (SMILES) | viability at 4 days, 50 µM [10] [%] | also measured |
| --- | --- | --- | --- | --- | --- | --- | --- | --- | --- |
| – | – | – | – | – | – | – | COc1cccc2c1C(=O)c1c(O)c3c(c(O)c1C2=O)C[C@@](O)(C(=O)CO)C[C@@H]3O[C@H]1C[C@H](N)[C@H](O)[C@H](C)O1 [doxorubicin] | – | IC50 (A-549 cancer): 1400 nM; IC50 (Panc-1 cancer): 1000 nM |
| – | – | – | – | – | – | – | COc1ccc(/C=C/C(=O)c2ccc(NC(=O)Cn3c(-c4ccc(OC)c(OC)c4)cc(-c4ccc(OC)c(OC)c4)c(C#N)c3=O)cc2)cc1OC [Compound I] | – | IC50 (BRAF^V600E [5]; read-out: BRAF^V600E inhibition IC50): 65 nM; IC50 (Panc-1 cancer): 800 nM; IC50 (EGFR [6]): 89 nM |
| 31 ± 3 | 29 ± 2 | 27 ± 2 | 28 ± 2 | 73 ± 5 | 77 ± 6 nM | 29 | COc1ccc(-c2cc(-c3ccc(OC)c(OC)c3)c(C#N)c(=O)n2CC(=O)Nc2ccc(C3=NNC(c4ccc(OC)c(OC)c4)C3)cc2)cc1 (centres unmarked) [Compound 24, 2-(3-Cyano-4-(3,4-dimethoxyphenyl)-6-(4-methoxyphenyl)-2-oxopyridin-1(2H)-yl)-N-(4-(5-(3,4-dimethoxyphenyl)-4,5-dihydro-1H-pyrazol-3-yl)phenyl)acetamide] | 90 | – |
| 42 ± 4 | 38 ± 3 | 36 ± 3 | 38 ± 3 | – | – | 38 | N#Cc1c(-c2ccc(Cl)cc2)cc(-c2ccc(Cl)cc2)n(CC(=O)Nc2ccc(C3=NNC(c4ccc(Cl)cc4Cl)C3)cc2)c1=O (centres unmarked) [Compound 27, 2-(3-Cyano-4,6-bis(4-chlorophenyl)-2-oxopyridin-1(2H)-yl)-N-(4-(5-(2,4-dichlorophenyl)-4,5-dihydro-1H-pyrazol-3-yl)phenyl)acetamide] | 88 | – |
| 45 ± 4 | 42 ± 4 | 40 ± 3 | 42 ± 4 | – | – | 42 | COc1ccc(C2CC(c3ccc(NC(=O)Cn4c(-c5ccc(Cl)cc5)cc(-c5ccc(Cl)cc5)c(C#N)c4=O)cc3)=NN2)cc1 (centres unmarked) [Compound 25, 2-(3-Cyano-4,6-bis(4-chlorophenyl)-2-oxopyridin-1(2H)-yl)-N-(4-(5-(4-methoxyphenyl)-4,5-dihydro-1H-pyrazol-3-yl)phenyl)acetamide] | 88 | – |
| 31 ± 3 | 30 ± 3 | 27 ± 2 | 30 ± 3 | 75 ± 5 | 80 ± 7 nM | 30 | COc1ccc(C2CC(c3ccc(NC(=O)Cn4c(-c5ccc(Cl)cc5)cc(-c5ccc(Cl)cc5)c(C#N)c4=O)cc3)=NN2)cc1OC (centres unmarked) [Compound 29, 2-(3-Cyano-4,6-bis(4-chlorophenyl)-2-oxopyridin-1(2H)-yl)-N-(4-(5-(3,4-dimethoxyphenyl)-4,5-dihydro-1H-pyrazol-3-yl)phenyl)acetamide] | 91 | – |
| 34 ± 3 | 32 ± 3 | 29 ± 2 | 32 ± 3 | – | – | 32 | N#Cc1c(-c2ccc(Cl)cc2)cc(-c2ccc(Cl)cc2)n(CC(=O)Nc2ccc(C3=NNC(c4ccc(Cl)cc4)C3)cc2)c1=O (centres unmarked) [Compound 23, 2-(3-Cyano-4,6-bis(4-chlorophenyl)-2-oxopyridin-1(2H)-yl)-N-(4-(5-(4-chlorophenyl)-4,5-dihydro-1H-pyrazol-3-yl)phenyl)acetamide] | 91 | – |
| – | – | – | – | – | – | – | COc1ccc(C2CC(c3ccc(OCC(=O)Nc4ccc(C5=NNC(c6ccc(OC)c(OC)c6)C5)cc4)cc3)=NN2)cc1 (centres unmarked) [Compound II] | – | IC50 (A-549 cancer): 1000 nM; IC50 (BRAF^V600E [5]; read-out: BRAF^V600E IC50): 93 nM |
| 40 ± 4 | 36 ± 3 | 35 ± 3 | 36 ± 3 | – | – | 37 | Cc1ccc(C2CC(c3ccc(NC(=O)Cn4c(-c5ccc(Cl)cc5)cc(-c5ccc(Cl)cc5)c(C#N)c4=O)cc3)=NN2)c(C)c1 (centres unmarked) [Compound 26, 2-(3-Cyano-4,6-bis(4-chlorophenyl)-2-oxopyridin-1(2H)-yl)-N-(4-(5-(2,4-dimethylphenyl)-4,5-dihydro-1H-pyrazol-3-yl)phenyl)acetamide] | 92 | – |
| 30 ± 3 | 28 ± 2 | 26 ± 2 | 28 ± 2 | 72 ± 5 | 73 ± 6 nM | 28 | N#Cc1c(-c2ccc(Cl)cc2)cc(-c2ccc(Cl)cc2)n(CC(=O)Nc2ccc(C3=NNC(c4ccccc4)C3)cc2)c1=O (centres unmarked) [Compound 21, 2-(3-Cyano-4,6-bis(4-chlorophenyl)-2-oxopyridin-1(2H)-yl)-N-(4-(5-phenyl-4,5-dihydro-1H-pyrazol-3-yl)phenyl)acetamide] | 90 | Caspase-3 Conc [14]: 530 ± 5 pg/mL |
| – | – | – | – | – | – | – | CN[C@@H]1C[C@H]2O[C@@](C)([C@@H]1OC)n1c3ccccc3c3c4c(c5c6ccccc6n2c5c31)C(=O)NC4 [Staurosporine, reference compound] | – | Caspase-8 Fold Change [11]: 21 fold; Bax Fold Change [12]: 32 fold; Bcl-2 Fold Reduction [13]: 5 fold; Bcl-2 Conc [13]: 1.00 ng/mL; Caspase-3 Fold Change [14]: 7 fold |

| Structure (SMILES) | IC50 [1] [nM] | IC50 [2] [nM] | IC50 [3] [nM] | IC50 [4] [nM] | IC50 (EGFR [7]) [nM] | IC50 (BRAF^V600E [8]) | IC50 [9] [nM] | viability at 4 days, 50 µM [10] [%] | also measured |
| --- | --- | --- | --- | --- | --- | --- | --- | --- | --- |
| C#Cc1cccc(Nc2ncnc3cc(OCCOC)c(OCCOC)cc23)c1 [Erlotinib, reference compound] | 40 ± 3 | 30 ± 3 | 30 ± 3 | 30 ± 3 | – | – | – | – | – |
| COc1ccc(C2CC(c3ccc(NC(=O)Cn4c(-c5ccc(OC)c(OC)c5)cc(-c5ccc(OC)c(OC)c5)c(C#N)c4=O)cc3)=NN2)cc1 (centres unmarked) [Compound 28, 2-(3-Cyano-4,6-bis(3,4-dimethoxyphenyl)-2-oxopyridin-1(2H)-yl)-N-(4-(5-(4-methoxyphenyl)-4,5-dihydro-1H-pyrazol-3-yl)phenyl)acetamide] | 30 ± 3 | 26 ± 2 | 25 ± 2 | 26 ± 2 | 70 ± 5 | 65 nM and 69 nM | 27 | 89 | fold more potent than the reference Erlotinib (EGFR IC50) (EGFR [7]): 1.2 fold; Caspase-8 Fold Change [11]: 25 fold; Caspase-8 Conc [11]: 2.25 ng/mL; Bax Fold Change [12]: 36 fold; Bax Conc [12]: 325 pg/mL; Bcl-2 Fold Reduction [13]: 6 fold; Bcl-2 Conc [13]: 0.80 ng/mL; Caspase-3 Fold Change [14]: ~9 fold; Caspase-3 Conc [14]: 590 ± 5 pg/mL and 595 ± 5 pg/mL |
| COc1ccc(-c2cc(-c3ccc(OC)c(OC)c3)n(CC(=O)Nc3ccc(C4=NNC(c5ccccc5)C4)cc3)c(=O)c2C#N)cc1OC (centres unmarked) [Compound 22, 2-(3-Cyano-4,6-bis(3,4-dimethoxyphenyl)-2-oxopyridin-1(2H)-yl)-N-(4-(5-phenyl-4,5-dihydro-1H-pyrazol-3-yl)phenyl)acetamide] | 35 ± 3 | 34 ± 3 | 32 ± 3 | 32 ± 3 | – | – | 33 | 89 | fold less potent than compound 30 (GI50) ([9]; GI50 ratio vs compound 30): 1.3 fold |
| COc1ccc(-c2cc(-c3ccc(OC)c(OC)c3)n(CC(=O)Nc3ccc(C4=NNC(c5ccc(OC)c(OC)c5)C4)cc3)c(=O)c2C#N)cc1OC (centres unmarked) [Compound 30, 2-(3-Cyano-4,6-bis(3,4-dimethoxyphenyl)-2-oxopyridin-1(2H)-yl)-N-(4-(5-(3,4-dimethoxyphenyl)-4,5-dihydro-1H-pyrazol-3-yl)phenyl)acetamide] | 28 ± 2 | 24 ± 2 | 23 ± 2 | 24 ± 2 | 68 ± 4 | 69 nM and 65 nM | 25 | 90 | fold more potent than the reference Erlotinib (EGFR IC50) (EGFR [7]): 1.2 fold; Caspase-8 Fold Change [11]: 28 fold; Caspase-8 Conc [11]: 2.50 ng/mL; Bax Fold Change [12]: 38 fold; Bax Conc [12]: 345 pg/mL; fold more potent than the reference Erlotinib (GI50) ([9]; GI50 ratio vs Erlotinib): 1.3 fold; Bcl-2 Fold Reduction [13]: 8 fold; Bcl-2 Conc [13]: 0.65 ng/mL; Caspase-3 Fold Change [14]: ~11 fold; Caspase-3 Conc [14]: 710 ± 6 pg/mL |
